Experimental data as given in patent publication US20240208968A1, “ALPHA V BETA 6 AND ALPHA V BETA 1 INTEGRIN INHIBITORS AND USES THEREOF” (DiCE Molecules SV, Inc., priority 2021, published 2024).
Counter-ions that a name gives are not always drawn.

Assays:
αvβ1 = αvβ1 (Homo sapiens, UniProt P05556+P06756); assay: Solid Phase Integrin αvβ1 Assay; assay type: binding
Method: (§1) The compounds exemplified in this document were tested for their ability to inhibit αvβ1 and αvβ6 in below described solid phase integrin assays.
Solid Phase Integrin αvβ1 Assay
96-well microtiter plates (4 HBX Immulon; Thermo Fisher Scientific, Waltham, MA) were coated with 100 μL/well of 1 μg/mL recombinant TGFb1-LAP in TBS at 4° C., overnight. The coating solution was removed, and plates were blocked with 200 μL/well of blocking and binding buffer (2% BSA/TBST, 1 mM MnCl2) at room temperature for 1 hr. Blocking buffer was removed and 50 μL of binding buffer and testing compounds were added. 50 μL of diluted αvβ1 (0.2 ug/mL in binding buffer) was added to wells (100 μL/well total) for and plates incubated for 90 min at room temperature. Wells were washed thrice with washing buffer (TBS, 0.05% Tween, 1 mM MnCl2) and plates were incubated with 100 μL/well of a 1:12500 dilution of streptavidin-horseradish peroxidase conjugate (Thermo Fisher Scientific) in binding buffer for 20 min at room temperature. Bound protein was detected using the substrate TMB. The IC50 values for testing compounds were calculated by Levenberg-Marquardt four parameter fitting logistics.

αvβ6 = αvβ6 (Homo sapiens, UniProt P06756+P18564); assay: Solid Phase Integrin αvβ6 Assay; assay type: binding
Method: as §1
Solid Phase Integrin αvβ6 Assay
96-well microtiter plates (4 HBX Immulon; Thermo Fisher Scientific, Waltham, MA) were coated with 100 μL/well of 1 μg/mL recombinant TGFb1-LAP in TBS at 4° C., overnight. The coating solution was removed, and plates were blocked with 200 μL/well of blocking and binding buffer (2% BSA/TBST, 1 mM MnCl2) at room temperature for 1 hr. Blocking buffer was removed and 50 uL of binding buffer and testing compounds were added. 50 μL of diluted αvβ6 (0.2 μg/mL in binding buffer) was added to wells (100 uL/well total) and plates incubated for 1 hr at room temperature. Wells were washed thrice with washing buffer (TBS, 0.05% Tween, 1 mM MnCl2) and plates were incubated with 100 μL/well of a 1:12500) dilution of streptavidin-horseradish peroxidase conjugate (Thermo Fisher Scientific) in binding buffer for 20 min at room temperature. Bound protein was detected using the substrate TMB. The IC50 values for testing compounds were calculated by Levenberg-Marquardt four parameter fitting logistics.

Chain of αvβ6 (P06756 31-992 limits assumed): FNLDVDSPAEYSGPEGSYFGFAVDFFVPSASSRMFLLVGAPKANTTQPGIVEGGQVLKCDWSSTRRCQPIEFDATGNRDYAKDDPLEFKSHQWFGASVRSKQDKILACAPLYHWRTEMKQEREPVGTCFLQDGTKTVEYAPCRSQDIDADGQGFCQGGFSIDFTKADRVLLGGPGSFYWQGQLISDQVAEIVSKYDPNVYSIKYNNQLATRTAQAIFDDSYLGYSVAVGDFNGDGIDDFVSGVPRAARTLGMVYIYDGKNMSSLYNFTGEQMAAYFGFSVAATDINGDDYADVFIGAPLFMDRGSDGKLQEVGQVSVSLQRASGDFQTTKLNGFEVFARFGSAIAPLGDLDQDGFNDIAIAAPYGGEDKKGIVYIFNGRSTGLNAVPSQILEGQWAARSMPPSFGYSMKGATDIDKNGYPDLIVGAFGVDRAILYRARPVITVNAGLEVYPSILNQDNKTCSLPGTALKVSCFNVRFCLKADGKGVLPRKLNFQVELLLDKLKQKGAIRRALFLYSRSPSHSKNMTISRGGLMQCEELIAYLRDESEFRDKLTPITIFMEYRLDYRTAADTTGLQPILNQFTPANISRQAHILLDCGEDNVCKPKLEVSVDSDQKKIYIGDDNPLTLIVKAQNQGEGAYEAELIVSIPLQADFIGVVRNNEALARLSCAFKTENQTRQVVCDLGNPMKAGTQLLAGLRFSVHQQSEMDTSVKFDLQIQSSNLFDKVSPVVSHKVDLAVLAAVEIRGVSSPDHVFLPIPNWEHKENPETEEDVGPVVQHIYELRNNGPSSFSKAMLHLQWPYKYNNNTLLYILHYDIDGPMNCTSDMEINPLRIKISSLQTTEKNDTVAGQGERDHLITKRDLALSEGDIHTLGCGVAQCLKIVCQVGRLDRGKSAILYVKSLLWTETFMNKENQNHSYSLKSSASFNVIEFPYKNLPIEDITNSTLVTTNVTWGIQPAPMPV
Chain of αvβ6 (P18564 22-707 limits assumed): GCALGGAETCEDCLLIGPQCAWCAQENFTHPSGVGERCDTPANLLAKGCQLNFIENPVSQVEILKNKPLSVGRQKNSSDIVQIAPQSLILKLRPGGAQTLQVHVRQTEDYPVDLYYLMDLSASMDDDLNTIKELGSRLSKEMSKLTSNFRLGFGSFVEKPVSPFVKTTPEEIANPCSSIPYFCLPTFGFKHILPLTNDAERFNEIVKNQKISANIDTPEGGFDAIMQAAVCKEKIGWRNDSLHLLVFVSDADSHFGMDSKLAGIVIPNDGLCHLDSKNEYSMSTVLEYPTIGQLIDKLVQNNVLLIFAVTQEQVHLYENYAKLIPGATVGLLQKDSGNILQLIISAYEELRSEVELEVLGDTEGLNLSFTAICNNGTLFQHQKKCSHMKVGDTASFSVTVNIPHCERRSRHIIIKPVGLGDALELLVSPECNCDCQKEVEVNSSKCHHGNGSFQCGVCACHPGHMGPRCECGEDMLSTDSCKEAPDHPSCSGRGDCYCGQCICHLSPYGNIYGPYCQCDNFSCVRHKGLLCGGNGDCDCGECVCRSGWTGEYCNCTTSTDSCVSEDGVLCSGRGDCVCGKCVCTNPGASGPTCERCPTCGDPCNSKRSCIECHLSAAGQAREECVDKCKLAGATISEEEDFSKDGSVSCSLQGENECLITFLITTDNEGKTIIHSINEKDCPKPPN
Chain of αvβ1 (P06756 31-992 limits assumed): as the sequence (P06756 31-992 limits assumed) above
Chain of αvβ1 (P05556 21-728 limits assumed): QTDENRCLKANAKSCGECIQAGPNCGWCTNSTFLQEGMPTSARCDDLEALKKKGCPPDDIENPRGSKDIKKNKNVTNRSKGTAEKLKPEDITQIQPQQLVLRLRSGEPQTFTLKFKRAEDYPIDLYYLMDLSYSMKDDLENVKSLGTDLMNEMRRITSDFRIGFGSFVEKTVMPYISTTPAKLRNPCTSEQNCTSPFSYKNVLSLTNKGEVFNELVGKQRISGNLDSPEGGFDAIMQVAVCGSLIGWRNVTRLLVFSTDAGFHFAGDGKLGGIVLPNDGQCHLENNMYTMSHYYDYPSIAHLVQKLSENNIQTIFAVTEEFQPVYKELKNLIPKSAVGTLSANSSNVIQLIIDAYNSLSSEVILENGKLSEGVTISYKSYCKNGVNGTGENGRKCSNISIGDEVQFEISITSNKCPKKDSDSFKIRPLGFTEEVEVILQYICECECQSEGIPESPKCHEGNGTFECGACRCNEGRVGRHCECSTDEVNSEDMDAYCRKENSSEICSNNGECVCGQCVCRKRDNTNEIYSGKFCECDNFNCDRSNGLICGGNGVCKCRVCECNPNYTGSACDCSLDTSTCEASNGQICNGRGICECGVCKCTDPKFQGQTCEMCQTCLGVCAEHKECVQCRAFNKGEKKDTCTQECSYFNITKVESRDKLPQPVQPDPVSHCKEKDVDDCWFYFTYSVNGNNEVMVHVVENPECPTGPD

IC50 (αvβ1) | IC50 (αvβ6) | Structure (SMILES)
< 100 nM | < 100 nM | O=C(O)C[C@@H](NC(=O)[C@@H]1CCCN(CCCc2ccc3c(n2)NCCC3)C1)c1ccc2c(c1)CCC2 [Compound 201-B, 3-(2,3-dihydro-1H-inden-5-yl)-3-((R)-1-(3-(5,6,7,8-tetrahydro-1,8-naphthyridin-2-yl)propyl)piperidine-3-carboxamido)propanoic acid hydrochloride]
< 100 nM | < 100 nM | O=C(O)C(CNC(=O)[C@@H]1CCCN(CCCc2ccc3c(n2)NCCC3)C1)c1cc(-c2ccccc2)ccn1 (stereo partly shown) [Compound 628]
< 100 nM | 100 to 1000 nM | O=C(O)C[C@@H](CC(=O)N[C@H]1CCN(C(=O)CCCc2ccc3c(n2)NCCC3)C1)c1ccccc1 [Compound 521]
100 to 1000 nM | 100 to 1000 nM | CN(CC1(C)CCCCC1)[C@@H](CNC(=O)[C@@H]1CCCN(CCCc2ccc3c(n2)NCCC3)C1)C(=O)O [Compound 527]
< 100 nM |  | CC1(C)CN(c2cccc([C@@H](NC(=O)[C@@H]3CCCN(CCCc4ccc5c(n4)NCCC5)C3)C(F)(F)C(=O)O)c2)CCO1 [Compound 300, (R)-3-(3-(2,2-dimethylmorpholino)phenyl)-2,2-difluoro-3-((R)-1-(3-(5,6,7,8-tetrahydro-1,8-naphthyridin-2-yl)propyl)piperidine-3-carboxamido)propanoic acid]
100 to 1000 nM | 100 to 1000 nM | O=C(O)C[C@H](NC(=O)[C@@H]1CCCN(CCCc2ccc3c(n2)NCCC3)C1)c1cnc2ccccc2c1 [Compound 540]
> 1000 nM | 100 to 1000 nM | O=C(O)C[C@@H](CO[C@@H]1CCCN(CCCc2ccc3c(n2)NCCC3)C1)c1cccc(-c2ccccc2)c1 [Compound 457]
< 100 nM | < 100 nM | O=C(NC[C@H](C(=O)O)c1cccc(Oc2ccccc2)c1)[C@@H]1CCCN(CCCc2ccc3c(n2)NCCC3)C1 [Compound 251-B]
> 1000 nM | > 1000 nM | O=C(O)C[C@H](NC(=O)[C@H]1CCCN(C(=O)CCc2ccc3c(n2)NCCC3)C1)c1ccccc1 [Compound 286, (S)-3-phenyl-3-((S)-1-(3-(5,6,7,8-tetrahydro-1,8-naphthyridin-2-yl)propanoyl)piperidine-3-carboxamido)propanoic acid hydrochloride]
100 to 1000 nM | < 100 nM | O=C(NC[C@H](NS(=O)(=O)c1ccc2c(c1)CCC2)C(=O)O)[C@@H]1CCCN(CCCc2ccc3c(n2)NCCC3)C1 [Compound 275, (2S)-2-(indan-5-ylsulfonylamino)-3-[[(3R)-1-[3-(5,6,7,8-tetrahydro-1,8-naphthyridin-2-yl)propyl]piperidine-3-carbonyl]amino]propanoic acid]
< 100 nM | < 100 nM | O=C(NC[C@@H](C(=O)O)c1cc(F)cc(-c2cccc(F)c2)c1)[C@@H]1CCCN(CCCc2ccc3c(n2)NCCC3)C1 [Compound 636]
> 1000 nM | 100 to 1000 nM | CN1CCc2cc(S(=O)(=O)N[C@H](CNC(=O)[C@@H]3CCCN(CCCc4ccc5c(n4)NCCC5)C3)C(=O)O)ccc21 [Compound 450]
< 100 nM | < 100 nM | O=C(NC[C@@H](C(=O)O)c1ccc2c(c1)CCC2)[C@@H]1CCCN(CCCc2ccc3c(n2)NCCC3)C1 [Compound 254-B, 2-(2,3-dihydro-1H-inden-5-yl)-3-((R)-1-(3-(5,6,7,8-tetrahydro-1,8-naphthyridin-2-yl)propyl)piperidine-3-carboxamido)propanoic acid]
< 100 nM | < 100 nM | O=C(N[C@@H](CNC(=O)[C@@H]1CCCN(CCCc2ccc3c(n2)NCCC3)C1)C(=O)O)C1CCCCC1 [Compound 262, (S)-2-(cyclohexanecarboxamido)-3-((R)-1-(3-(5,6,7,8-tetrahydro-1,8-naphthyridin-2-yl)propyl)piperidine-3-carboxamido)propanoic acid hydrochloride]
< 100 nM | < 100 nM | O=C(NC[C@H](C(=O)O)c1cccc2cn([C@@H]3CCC(F)(F)C3)nc12)[C@@H]1CCCN(CCCc2ccc3c(n2)NCCC3)C1 [Compound 623]
> 1000 nM | > 1000 nM | O=C(O)[C@@H](CO[C@@H]1CCCN(CCCCc2ccc3c(n2)NCCC3)C1)c1ccccc1 [Compound 394]
 | 100 to 1000 nM | O=C(N[C@@H](CNC(=O)[C@@H]1CCCN(CCCc2ccc3c(n2)NCCC3)C1)C(=O)O)c1c(F)cccc1F [Compound 310]

IC50 (αvβ1) | IC50 (αvβ6) | Structure (SMILES)
 | < 100 nM | O=C(NC[C@H](Nc1ccccc1C1CC(F)(F)C1)C(=O)O)[C@@H]1CCCN(CCCc2ccc3c(n2)NCCC3)C1 [Compound 590]
 | < 100 nM | O=C(Cc1ccccc1)N[C@@H](CNC(=O)[C@@H]1CCCN(CCCc2ccc3c(n2)NCCC3)C1)C(=O)O [Compound 550]
 | < 100 nM | O=C(NC[C@@H](C(=O)O)c1ccc(-c2ccccc2)cc1)[C@@H]1CCCN(CCCc2ccc3c(n2)NCCC3)C1 [Compound 343]
< 100 nM |  | CC(C)CNC(=O)[C@@H]1CCCC[C@H]1C(=O)N[C@@H](CNC(=O)[C@@H]1CCCN(CCCc2ccc3c(n2)NCCC3)C1)C(=O)O [Compound 526]
 | < 100 nM | O=C(NC[C@H](Nc1cccnc1C1CC(F)(F)C1)C(=O)O)[C@@H]1CCCN(CCCc2ccc3c(n2)NCCC3)C1 [Compound 591]
< 100 nM |  | O=C(O)C[C@H](NC(=O)[C@@H]1CCCN(CCCc2ccc3c(n2)NCCC3)C1)c1cccc(-n2cccn2)c1 [Compound 537]
 | 100 to 1000 nM | CC1(C)CCN(c2cccc([C@H](CNC(=O)[C@@H]3CCCN(CCCc4ccc5c(n4)NCCC5)C3)C(=O)O)c2)CC1 [Compound 600]
 | 100 to 1000 nM | CC1(C)CN(c2cccc([C@H](CNC(=O)[C@@H]3CCCN(CCCc4ccc5c(n4)NCCC5)C3)C(=O)O)c2)CCO1 [Compound 594]
 | < 100 nM | O=C(N[C@@H](CNC(=O)[C@@H]1CCCN(CCCc2ccc3c(n2)NCCC3)C1)C(=O)O)c1cccc(C2CC2)c1 [Compound 370]
 | < 100 nM | CC1(C)COCCN1c1cccc([C@H](CNC(=O)[C@@H]2CCCN(CCCc3ccc4c(n3)NCCC4)C2)C(=O)O)c1 [Compound 596]
 | < 100 nM | O=C(NC[C@H](Nc1cc(-c2ccccc2)ncn1)C(=O)O)[C@@H]1CCCN(CCCc2ccc3c(n2)NCCC3)C1 [Compound 564]
 | < 100 nM | O=C(N[C@@H](CNC(=O)[C@@H]1CCCN(CCCc2ccc3c(n2)NCCC3)C1)C(=O)O)c1ccc2c(c1)CCC2 [Compound 548]
 | 100 to 1000 nM | C[C@@H]1CN(c2cccc([C@H](CNC(=O)[C@@H]3CCCN(CCCc4ccc5c(n4)NCCC5)C3)C(=O)O)c2)C[C@H](C)O1 [Compound 602]
 | > 1000 nM | CC1(C)CCCN(c2cccc([C@H](CNC(=O)[C@@H]3CCCN(CCCc4ccc5c(n4)NCCC5)C3)C(=O)O)c2)C1 [Compound 598]
 | < 100 nM | O=C(NC[C@H](Nc1cccc(C2CC(F)(F)C2)c1)C(=O)O)[C@@H]1CCCN(CCCc2ccc3c(n2)NCCC3)C1 [Compound 592]
 | < 100 nM | O=C(Cc1ccccc1Cl)N[C@@H](CNC(=O)[C@@H]1CCCN(CCCc2ccc3c(n2)NCCC3)C1)C(=O)O [Compound 545]
< 100 nM |  | O=C(O)C[C@H](NC(=O)[C@@H]1CCCN(CCCc2ccc3c(n2)NCCC3)C1)c1cc(F)cc(C2CC2)c1 [Compound 558]
